Assay results from ChEMBL document CHEMBL3414549, “Structural investigation of B-Raf paradox breaker and inducer inhibitors” (J Med Chem, 2015).
Calls of active or inactive are those of the source. No cut-off for these calls is given here.

Tests used:
[1] = molecular target: T1, Serine/threonine-protein kinase B-raf (Homo sapiens, UniProt P15056); assay: Binding affinity to recombinant human full-length wild type B-Raf (unknown origin) assessed as SNNIFLHEDLTVK accessible protease cleavage peptide level by LC-MS/MS analysis relative to control; note: test concentration or dose not given here
Target sequence in this assay (P15056 whole entry): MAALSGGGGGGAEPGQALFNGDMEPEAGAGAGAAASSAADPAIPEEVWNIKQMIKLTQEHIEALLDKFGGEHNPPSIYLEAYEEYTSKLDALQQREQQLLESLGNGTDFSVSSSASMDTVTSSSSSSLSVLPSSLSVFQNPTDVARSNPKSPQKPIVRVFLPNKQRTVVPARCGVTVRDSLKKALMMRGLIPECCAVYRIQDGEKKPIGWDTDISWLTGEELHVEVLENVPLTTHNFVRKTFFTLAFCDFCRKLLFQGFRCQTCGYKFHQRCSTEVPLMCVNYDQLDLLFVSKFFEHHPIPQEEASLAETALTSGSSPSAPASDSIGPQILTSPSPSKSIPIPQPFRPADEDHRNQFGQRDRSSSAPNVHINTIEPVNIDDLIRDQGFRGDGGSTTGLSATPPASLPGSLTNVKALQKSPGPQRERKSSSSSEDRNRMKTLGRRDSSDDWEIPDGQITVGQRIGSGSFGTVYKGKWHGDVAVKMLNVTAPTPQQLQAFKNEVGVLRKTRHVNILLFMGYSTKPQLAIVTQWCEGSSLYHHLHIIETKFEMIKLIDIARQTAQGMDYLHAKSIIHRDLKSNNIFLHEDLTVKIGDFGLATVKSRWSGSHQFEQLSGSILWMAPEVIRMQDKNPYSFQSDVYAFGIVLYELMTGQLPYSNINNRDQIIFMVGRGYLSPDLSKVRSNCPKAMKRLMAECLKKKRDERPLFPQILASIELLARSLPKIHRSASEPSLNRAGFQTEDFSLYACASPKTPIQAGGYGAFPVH

[2] = molecular target: T1, Serine/threonine-protein kinase B-raf; assay: Binding affinity to recombinant human full-length wild type B-Raf (unknown origin) assessed as SPQKPIVR accessible protease cleavage peptide level by LC-MS/MS analysis relative to control
Target sequence in this assay (P15056 whole entry): as above

[3] = molecular target: T1, Serine/threonine-protein kinase B-raf; assay: Binding affinity to recombinant human full-length wild type B-Raf (unknown origin) assessed as SIIHRDLK accessible protease cleavage peptide level by LC-MS/MS analysis relative to control
Target sequence in this assay (P15056 whole entry): as above

[4] = molecular target: T1, Serine/threonine-protein kinase B-raf; assay: Binding affinity to recombinant human full-length wild type B-Raf (unknown origin) assessed as VFLPNK accessible protease cleavage peptide level by LC-MS/MS analysis relative to control
Target sequence in this assay (P15056 whole entry): as above

[5] = molecular target: T2, Serine/threonine-protein kinase B-raf (Homo sapiens, UniProt P15056, V600E); assay: Inhibition of B-Raf V600E mutant (unknown origin) assessed as inhibition of phosphorylation of peptide substrate
[6] = molecular target: T1, Serine/threonine-protein kinase B-raf; assay: Binding affinity to recombinant human full-length wild type B-Raf (unknown origin) assessed as WHGDVAVK accessible protease cleavage peptide level by LC-MS/MS analysis relative to control
Target sequence in this assay (P15056 whole entry): as above

[7] = molecular target: T1, Serine/threonine-protein kinase B-raf; assay: Binding affinity to recombinant human full-length wild type B-Raf (unknown origin) assessed as GYLSPDLSK accessible protease cleavage peptide level by LC-MS/MS analysis relative to control
Target sequence in this assay (P15056 whole entry): as above

[8] = molecular target: T1, Serine/threonine-protein kinase B-raf; assay: Inhibition of phosphorylation of MEK level in human SW620 cells expressing wild type B-Raf at 3 microM after 48 hrs by immunoblotting analysis; assay type: cell-based; conditions: SW-620
[9] = molecular target: T1, Serine/threonine-protein kinase B-raf; assay: Binding affinity to recombinant human full-length wild type B-Raf (unknown origin) assessed as LIDIAR accessible protease cleavage peptide level by LC-MS/MS analysis relative to control; note: test concentration or dose not given here
[10] = molecular target: T2, Serine/threonine-protein kinase B-raf; assay: Binding affinity to B-Raf V600E mutant (unknown origin)
[11] = molecular target: T1, Serine/threonine-protein kinase B-raf; assay: Binding affinity to recombinant human full-length wild type B-Raf (unknown origin) assessed as NEVGVLR accessible protease cleavage peptide level by LC-MS/MS analysis relative to control
[12] = molecular target: T1, Serine/threonine-protein kinase B-raf; assay: Binding affinity to recombinant human full-length wild type B-Raf (unknown origin) assessed as TPIQAGGYGAFPVH accessible protease cleavage peptide level by LC-MS/MS analysis relative to control; note: test concentration or dose not given here
[13] = molecular target: T2, Serine/threonine-protein kinase B-raf; assay: Inhibition of B-Raf V600E mutant in human A375 cells assessed as phosphorylation of ERK; assay type: cell-based, A-375
[14] = molecular target: T1, Serine/threonine-protein kinase B-raf; assay: Binding affinity to recombinant human full-length wild type B-Raf (unknown origin) assessed as DQIIFMVGR accessible protease cleavage peptide level by LC-MS/MS analysis relative to control
[15] = molecular target: T1, Serine/threonine-protein kinase B-raf; assay: Binding affinity to recombinant human full-length wild type B-Raf (unknown origin) assessed as GDGGSTTGLSATPPASLPGSLTNVK accessible protease cleavage peptide level by LC-MS/MS analysis relative to control
[16] = molecular target: T1, Serine/threonine-protein kinase B-raf; assay: Binding affinity to recombinant human full-length wild type B-Raf (unknown origin) assessed as IGDFGLATVK accessible protease cleavage peptide level by LC-MS/MS analysis relative to control
[17] = molecular target: T1, Serine/threonine-protein kinase B-raf; assay: Binding affinity to recombinant human full-length wild type B-Raf (unknown origin) assessed as SIPIPQPFRPADEDHR accessible protease cleavage peptide level by LC-MS/MS analysis relative to control; note: test concentration or dose not given here
[18] = test system: A-375; assay: Inhibition of cell proliferation in human A375 cells expressing B-Raf V600E mutant after 96 hrs by MTT assay; assay type: functional, cell-based
[19] = molecular target: T1, Serine/threonine-protein kinase B-raf; assay: Binding affinity to recombinant human full-length wild type B-Raf (unknown origin) assessed as DSLKK accessible protease cleavage peptide level by LC-MS/MS analysis relative to control
[20] = molecular target: T1, Serine/threonine-protein kinase B-raf; assay: Binding affinity to recombinant human full-length wild type B-Raf (unknown origin) assessed as QTAQGMDYLHAK accessible protease cleavage peptide level by LC-MS/MS analysis relative to control
[21] = molecular target: T1, Serine/threonine-protein kinase B-raf; assay: Binding affinity to recombinant human full-length wild type B-Raf (unknown origin) assessed as DSSDDWEIPDGQITVGQR accessible protease cleavage peptide level by LC-MS/MS analysis relative to control; note: test concentration or dose not given here
[22] = molecular target: T1, Serine/threonine-protein kinase B-raf; assay: Binding affinity to wild type B-Raf (unknown origin)
[23] = molecular target: T1, Serine/threonine-protein kinase B-raf; assay: Binding affinity to recombinant human full-length wild type B-Raf (unknown origin) assessed as 7VVPAR accessible protease cleavage peptide level by LC-MS/MS analysis relative to control; note: test concentration or dose not given here
[24] = molecular target: T1, Serine/threonine-protein kinase B-raf; assay: Binding affinity to recombinant human full-length wild type B-Raf (unknown origin) assessed as IGSGSFGTVYK accessible protease cleavage peptide level by LC-MS/MS analysis relative to control
[25] = test system: SW-620; assay: Inhibition of cell proliferation in human SW620 cells expressing wild type B-Raf after 96 hrs by MTT assay; assay type: functional, cell-based
[26] = molecular target: T1, Serine/threonine-protein kinase B-raf; assay: Activation of tumorigenic wild type B-Raf in human IPC-298 cells with Ras mutation assessed as phosphorylation of ERK; assay type: cell-based
Target sequence in this assay (P15056 2-766 limits assumed, change not shown): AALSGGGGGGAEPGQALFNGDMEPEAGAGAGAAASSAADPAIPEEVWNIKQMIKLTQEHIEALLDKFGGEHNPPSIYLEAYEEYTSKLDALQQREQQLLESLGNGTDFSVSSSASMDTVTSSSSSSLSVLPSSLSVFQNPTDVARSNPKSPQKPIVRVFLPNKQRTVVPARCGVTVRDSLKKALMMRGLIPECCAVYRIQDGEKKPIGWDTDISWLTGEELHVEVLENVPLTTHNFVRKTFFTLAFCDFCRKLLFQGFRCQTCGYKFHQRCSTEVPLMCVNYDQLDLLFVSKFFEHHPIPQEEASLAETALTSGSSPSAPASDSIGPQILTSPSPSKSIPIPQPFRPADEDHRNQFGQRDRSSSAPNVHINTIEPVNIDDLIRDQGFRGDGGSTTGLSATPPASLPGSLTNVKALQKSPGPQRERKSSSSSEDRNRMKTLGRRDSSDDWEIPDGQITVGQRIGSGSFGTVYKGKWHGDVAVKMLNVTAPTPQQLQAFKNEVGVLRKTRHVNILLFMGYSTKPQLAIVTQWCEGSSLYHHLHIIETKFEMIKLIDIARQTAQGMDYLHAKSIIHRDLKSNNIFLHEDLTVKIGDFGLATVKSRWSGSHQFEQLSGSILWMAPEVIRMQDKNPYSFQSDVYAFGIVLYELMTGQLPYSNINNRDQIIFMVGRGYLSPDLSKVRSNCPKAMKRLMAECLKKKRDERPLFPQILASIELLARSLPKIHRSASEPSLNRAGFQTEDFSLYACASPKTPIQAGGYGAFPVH

[27] = molecular target: T1, Serine/threonine-protein kinase B-raf; assay: Inhibition of phosphorylation of ERK level in human SW620 cells expressing wild type B-Raf at 3 microM after 48 hrs by immunoblotting analysis; assay type: cell-based; conditions: SW-620
[28] = molecular target: T1, Serine/threonine-protein kinase B-raf; assay: Binding affinity to recombinant human full-length wild type B-Raf (unknown origin) assessed as SASEPSLNR accessible protease cleavage peptide level by LC-MS/MS analysis relative to control

T2 sequence (P15056 2-766 V600E limits assumed): as the sequence (P15056 2-766 limits assumed, change not shown) above, with V599E counted along it

| SMILES | Ratio [1] | Ratio [2] | Ratio [3] | Ratio [4] | IC50 [5] [nM] | Ratio [6] | Ratio [7] | Ratio [9] | Ratio [11] | Ratio [12] | Ratio [14] | Ratio [15] | Ratio [16] | Ratio [17] | Ratio [19] | Ratio [20] | Ratio [21] | Ratio [23] | Ratio [24] | Ratio [28] | further results |
| --- | --- | --- | --- | --- | --- | --- | --- | --- | --- | --- | --- | --- | --- | --- | --- | --- | --- | --- | --- | --- | --- |
| CCN(C)S(=O)(=O)Nc1ccc(F)c(C(=O)c2c[nH]c3ncc(Cl)cc23)c1F | 0.21 | 1.11 | 0.47 | 1.01 | < 100 | 0.5 | 0.91 | 0.5 | 0.37 | 1.42 | 0.83 | 1.55 | 0.53 | 1.45 | 1.71 | 0.9 | 0.56 | 1.26 | 0.62 | 1.8 | inhibition [8]: Active; Kd [10]: 550 nM; IC50 [13]: < 1000 nM; inhibition [18]: Active; Kd [22]: 400 nM; inhibition [25]: inactive; EC50 [26]: > 10000 nM; inhibition [27]: Active |
| CCN(C)S(=O)(=O)Nc1ccc(F)c(C(=O)c2c[nH]c3ncc(-c4ccc(Cl)cc4)cc23)c1F | 0.11 | 0.94 | 0.3 | 0.73 | < 100 | 0.36 | 0.41 | 0.23 | 0.12 | 1.22 | 0.48 | 1.16 | 0.3 | 1.27 | 0.93 | 0.36 | 0.37 | 0.96 | 0.42 | 1.53 | inhibition [8]: Active; Kd [10]: 1410 nM; IC50 [13]: < 1000 nM; inhibition [18]: Active; Kd [22]: 690 nM; inhibition [25]: inactive; EC50 [26]: > 10000 nM; inhibition [27]: Active |
| Nc1ncnc2c1ncn2[C@@H]1O[C@H](COP(=O)(O)OP(=O)(O)OP(=O)(O)O)[C@@H](O)[C@H]1O | 0.77 | 0.64 | 1.16 | 0.78 | – | 0.75 | 0.76 | 0.54 | 0.34 | 0.95 | 0.57 | 0.68 | 0.72 | 0.75 | 0.76 | 0.81 | 0.62 | 0.97 | 0.62 | 0.94 | – |
| Nc1ncnc2c1ncn2[C@@H]1O[C@H](COP(=O)(O)OP(=O)(O)NP(=O)(O)O)[C@@H](O)[C@H]1O | 1.03 | 0.83 | 0.37 | 0.91 | – | 0.67 | 0.82 | 0.55 | 0.46 | 1.14 | 0.62 | 0.98 | 0.79 | 1 | 0.76 | 0.72 | 0.71 | 0.89 | 0.83 | 0.95 | – |
| Nc1ncnc2c1ncn2[C@@H]1O[C@H](COP(=O)(O)OP(=O)(O)O)[C@@H](O)[C@H]1O | 1.9 | 1.14 | 0.32 | 1.24 | – | 0.99 | 1.27 | 0.86 | 1.13 | 1.42 | 1.36 | 1.28 | 1.3 | 1.34 | 1.34 | 1.22 | 0.83 | 1.21 | 1.18 | 1.04 | – |
